# Laboratory results from PubChem BioAssay (NCI).
#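 The concentration for 50% growth inhibition is given as GI50. TGI is the concentration that stops growth completely.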
# What was measured:
# Experiment in all cases: NCI-60 cell line screen, 384-well format
# HOP-92 NSCLC = system: HOP-92 NSCLC
# SK-MEL-2 melanoma = system: SK-MEL-2 melanoma
# SK-OV-3 ovarian = system: SK-OV-3 ovarian
# NCI-H322M lung = system: NCI-H322M lung
# NCI-H23 lung = system: NCI-H23 lung
# A549 NSCLC = system: A549 NSCLC
# TK-10 renal = system: TK-10 renal
# HCT-15 colon = system: HCT-15 colon
# RPMI-8226 leukemia = system: RPMI-8226 leukemia
# T-47D breast = system: T-47D breast
# OVCAR-8 ovarian = system: OVCAR-8 ovarian
# U251 glioblastoma = system: U251 glioblastoma
# MDA-MB-435 melanoma = system: MDA-MB-435 melanoma
# M14 melanoma = system: M14 melanoma
# RXF 393 renal = system: RXF 393 renal
# NCI-H226 lung = system: NCI-H226 lung
# HS 578T breast = system: HS 578T breast
# SF-295 CNS = system: SF-295 CNS
# DU-145 prostate = system: DU-145 prostate
# UACC-257 melanoma = system: UACC-257 melanoma
# OVCAR-5 ovarian = system: OVCAR-5 ovarian
# SK-MEL-5 melanoma = system: SK-MEL-5 melanoma
# MOLT-4 leukemia = system: MOLT-4 leukemia
# ACHN renal = system: ACHN renal
# SW-620 colon = system: SW-620 colon
# MALME-3M melanoma = system: MALME-3M melanoma
# SNB-75 CNS = system: SNB-75 CNS
# MDA-MB-468 breast = system: MDA-MB-468 breast
# CCRF-CEM leukemia = system: CCRF-CEM leukemia
# OVCAR-3 ovarian = system: OVCAR-3 ovarian
# OVCAR-4 ovarian = system: OVCAR-4 ovarian
# CAKI-1 renal = system: CAKI-1 renal
# SN12C renal = system: SN12C renal
# HOP-62 NSCLC = system: HOP-62 NSCLC
# UACC-62 melanoma = system: UACC-62 melanoma
# MCF7 breast = system: MCF7 breast
# NCI/ADR-RES ovarian = system: NCI/ADR-RES ovarian
# IGROV1 ovarian = system: IGROV1 ovarian
# SR leukemia = system: SR leukemia
# EKVX NSCLC = system: EKVX NSCLC
# MDA-MB-231 breast = system: MDA-MB-231 breast
# COLO 205 colon = system: COLO 205 colon
# HT29 colon = system: HT29 colon
# HL-60(TB) leukemia = system: HL-60(TB) leukemia
# NCI-H522 lung = system: NCI-H522 lung
# BT-549 breast = system: BT-549 breast
# PC-3 prostate = system: PC-3 prostate
# SF-539 CNS = system: SF-539 CNS
# 786-0 renal = system: 786-0 renal
# HCC-2998 colon = system: HCC-2998 colon
# SF-268 CNS = system: SF-268 CNS
# SNB-19 CNS = system: SNB-19 CNS
# NCI-H460 NSCLC = system: NCI-H460 NSCLC
# KM12 colon = system: KM12 colon
# SK-MEL-28 melanoma = system: SK-MEL-28 melanoma
structure (smiles),measurement,setting,value
Nc1ncn([C@@H]2S[C@H](CO)[C@@H](O)[C@@H]2F)c(=O)n1,GI50,HOP-92 NSCLC,0.314 µM
same,TGI,HOP-92 NSCLC,> 100 µM
same,GI50,SK-MEL-2 melanoma,0.392 µM
same,TGI,SK-MEL-2 melanoma,0.692 µM
same,GI50,SK-OV-3 ovarian,0.299 µM
same,TGI,SK-OV-3 ovarian,2.2 µM
same,GI50,NCI-H322M lung,2.91 µM
same,TGI,NCI-H322M lung,> 100 µM
same,GI50,NCI-H23 lung,0.269 µM
same,TGI,NCI-H23 lung,0.805 µM
same,GI50,A549 NSCLC,0.409 µM
same,TGI,A549 NSCLC,> 100 µM
same,GI50,TK-10 renal,0.988 µM
same,TGI,TK-10 renal,> 100 µM
same,GI50,HCT-15 colon,1.85 µM
same,TGI,HCT-15 colon,> 100 µM
same,GI50,RPMI-8226 leukemia,2.16 µM
same,TGI,RPMI-8226 leukemia,4.42 µM
same,GI50,T-47D breast,10.4 µM
same,TGI,T-47D breast,> 100 µM
same,GI50,OVCAR-8 ovarian,0.255 µM
same,TGI,OVCAR-8 ovarian,1.83 µM
same,GI50,U251 glioblastoma,2.41 µM
same,TGI,U251 glioblastoma,23.6 µM
same,GI50,MDA-MB-435 melanoma,1.73 µM
same,TGI,MDA-MB-435 melanoma,> 100 µM
same,GI50,M14 melanoma,0.29 µM
same,TGI,M14 melanoma,0.833 µM
same,GI50,RXF 393 renal,2.77 µM
same,TGI,RXF 393 renal,44.8 µM
same,GI50,NCI-H226 lung,1.01 µM
same,TGI,NCI-H226 lung,3.8 µM
same,GI50,HS 578T breast,0.984 µM
same,TGI,HS 578T breast,> 100 µM
same,GI50,SF-295 CNS,2.44 µM
same,TGI,SF-295 CNS,17.8 µM
same,GI50,DU-145 prostate,0.389 µM
same,TGI,DU-145 prostate,3.95 µM
same,GI50,UACC-257 melanoma,58.7 µM
same,TGI,UACC-257 melanoma,> 100 µM
same,GI50,OVCAR-5 ovarian,0.691 µM
same,TGI,OVCAR-5 ovarian,7.73 µM
same,GI50,SK-MEL-5 melanoma,0.435 µM
same,TGI,SK-MEL-5 melanoma,2.76 µM
same,GI50,MOLT-4 leukemia,0.0287 µM
same,TGI,MOLT-4 leukemia,0.11 µM
same,GI50,ACHN renal,0.224 µM
same,TGI,ACHN renal,0.49 µM
same,GI50,SW-620 colon,0.887 µM
same,TGI,SW-620 colon,> 100 µM
same,GI50,MALME-3M melanoma,0.366 µM
same,TGI,MALME-3M melanoma,2.66 µM
same,GI50,SNB-75 CNS,15.6 µM
same,TGI,SNB-75 CNS,> 100 µM
same,GI50,MDA-MB-468 breast,2.37 µM
same,TGI,MDA-MB-468 breast,8.07 µM
same,GI50,CCRF-CEM leukemia,0.0266 µM
same,TGI,CCRF-CEM leukemia,0.0961 µM
same,GI50,OVCAR-3 ovarian,0.853 µM
same,TGI,OVCAR-3 ovarian,> 100 µM
same,GI50,OVCAR-4 ovarian,> 100 µM
same,TGI,OVCAR-4 ovarian,> 100 µM
same,GI50,CAKI-1 renal,0.625 µM
same,TGI,CAKI-1 renal,> 100 µM
same,GI50,SN12C renal,0.604 µM
same,TGI,SN12C renal,2.91 µM
same,GI50,HOP-62 NSCLC,0.423 µM
same,TGI,HOP-62 NSCLC,2.59 µM
same,GI50,UACC-62 melanoma,3.64 µM
same,TGI,UACC-62 melanoma,19.7 µM
same,GI50,MCF7 breast,0.663 µM
same,TGI,MCF7 breast,> 100 µM
same,GI50,NCI/ADR-RES ovarian,0.291 µM
same,TGI,NCI/ADR-RES ovarian,1.38 µM
same,GI50,IGROV1 ovarian,2.03 µM
same,TGI,IGROV1 ovarian,> 100 µM
same,GI50,SR leukemia,0.414 µM
same,TGI,SR leukemia,1.4 µM
same,GI50,EKVX NSCLC,6.47 µM
same,TGI,EKVX NSCLC,> 100 µM
same,GI50,MDA-MB-231 breast,1.14 µM
same,TGI,MDA-MB-231 breast,81.1 µM
same,GI50,COLO 205 colon,0.268 µM
same,TGI,COLO 205 colon,0.788 µM
same,GI50,HT29 colon,2.38 µM
same,TGI,HT29 colon,> 100 µM
same,GI50,HL-60(TB) leukemia,0.241 µM
same,TGI,HL-60(TB) leukemia,0.495 µM
same,GI50,NCI-H522 lung,0.628 µM
same,TGI,NCI-H522 lung,> 100 µM
same,GI50,BT-549 breast,1.34 µM
same,TGI,BT-549 breast,8.75 µM
same,GI50,PC-3 prostate,1.43 µM
same,TGI,PC-3 prostate,> 100 µM
same,GI50,SF-539 CNS,3.75 µM
same,TGI,SF-539 CNS,18.6 µM
same,GI50,786-0 renal,0.254 µM
same,TGI,786-0 renal,1.54 µM
same,GI50,HCC-2998 colon,0.267 µM
same,TGI,HCC-2998 colon,14.1 µM
same,GI50,SF-268 CNS,1.05 µM
same,TGI,SF-268 CNS,4.99 µM
same,GI50,SNB-19 CNS,0.461 µM
same,TGI,SNB-19 CNS,7.05 µM
same,GI50,NCI-H460 NSCLC,0.238 µM
same,TGI,NCI-H460 NSCLC,0.724 µM
same,GI50,KM12 colon,1.41 µM
same,TGI,KM12 colon,> 100 µM
same,GI50,SK-MEL-28 melanoma,0.507 µM
same,TGI,SK-MEL-28 melanoma,4.92 µM
